Measurements published in patent publication EP1289507B1, “USE OF AN ALDOSTERONE ANTAGONIST FOR THE TREATMENT OR PROPHYLAXIS OF ALDOSTERONE-MEDIATED PATHOGENIC EFFECTS” (priority 2000, dated 2001).
Read-outs that look alike come from different tables or passages of the source.

Assays:
[1] = Physical stability of solid state forms; format: physicochemical; settings: at temperatures below the enantiotropic transition temperature
[2] = tested on: captopril-treated, saline-drinking SHRSP; assay: Protocol 2: Angiotensin II-induced renal damage in captopril-treated saline-drinking SHRSP; format: in vivo, male SHRSP/A3N
Protocol: Animals. Studies were conducted in accordance with institutional guidelines using male SHRSP/A3N (generations F-75 to F-78), n = 37, from our local colony. These animals were bred from NIH stock, derived from the SHRSP/A3N substrain described originally by Okamoto and coworkers (Okamoto K et al. Circ. Res. 34 and 35 (suppl I):I-143-I-153.). All animals were housed in a room maintained on a 12:12-h light:dark-cycle and an ambient temperature of 22 ± 1°C in the Animal Care Facility at New York Medical College. Rats were weaned at 4 weeks of age and allowed free access to Purina Lab Chow 5001 (Ralston Purina, St. Louis, MO) and tap water until the initiation of experimental protocols.
SHRSP were placed on Stroke-Prone Rodent Diet (#39-288, Zeigler Bros Inc., Gardners, PA) and 1% NaCl drinking solution ad libitum starting at 8.3 weeks of age. […] Animals were handled and weighed daily. Urine samples were collected for the assessment of proteinuria. Systolic blood pressure and heart rate were measured each week. After 2 weeks of treatment, animals were decapitated, trunk blood was collected into chilled EDTA tubes, and the kidneys were removed, blotted dry, and immediately weighed. Coronal sections of kidney were fixed and later processed for light microscopic evaluation.
Assays and Analyses. Systolic blood pressure and heart rate of awake animals were measured by tail-cuff plethysmography using a Natsume KN-210 manometer and tachometer (Peninsula Laboratories Inc., Belmont, CA). Rats were warmed at 37°C for 10 min and allowed to rest quietly in a Lucite chamber before measurement of blood pressure. Measurements of urine volume were made gravimetrically. Urinary protein concentration was determined by the sulfosalicylic acid turbidity method. Plasma aldosterone was measured by radioimmunoassay using ^125I-aldosterone as a tracer (Coat-a Count Aldosterone, Diagnostic Products Co., Los Angeles, CA).
Histology. Kidneys were preserved in 10% phosphate-buffered formalin. Coronal sections (2-3 µm) were stained with hematoxylin and eosin and examined by light microscopy in a blinded fashion as previously described (Stier CT et al. J Pharmacol Exp Ther (1992) 260:1410-1415). Glomerular damage was categorized as ischemic or thrombotic. Ischemic lesions were defined as retraction of glomerular capillary tufts with or without appreciable mesangiolysis. Glomerular thrombotic lesions were defined as any one of a combination of the following: segmental to global fibrinoid necrosis, focal thrombosis of glomerular capillaries, swelling and proliferation of intracapillary (endothelial and mesangial) and/or extracapillary cells (crescents), and expansion of reticulated mesangial matrix with or without significant hypercellularity. […] Vascular thrombotic lesions were defined as any one or a combination of the following: mural fibrinoid necrosis, extravasation and fragmentation of red blood cells, and luminal and/or mural thrombosis. Proliferative arteriopathy was characterized by proliferation of markedly swollen myointimal cells with swollen round to ovoid vesicular nuclei surrounded by mucinous extracellular matrix ("onion skinning") often resulting in nodular thickening. Vascular damage was expressed as the number of arteries and arterioles with lesions per 100 glomeruli. The presence of casts and tubular (ischemic) retraction and simplification was assessed semiquantitatively.
Statistical Analysis. Significant effects with respect to treatment and time were determined by two-way analysis of variance. Data with only one grouping variable were analyzed statistically by Student's unpaired t tests. When more than two groups were compared, one-way analysis of variance was performed followed by the post-hoc Newman-Keul's multiple comparison test. Data were analyzed using version 2.01 of the GraphPad Prism statistical software package (GraphPad Software Inc., San Diego, CA). P < .05 was considered statistically significant. Data are reported as mean ± SEM.

[3] = tested on: patients with severe heart failure; settings: added to ACE inhibitor plus loop diuretic; cited from earlier work
[4] = tested on: patients with hypertension; assay: Clinical efficacy in hypertension: randomized double-blind study, cuff and ambulatory blood pressure; format: in vivo; settings: 100 mg/day (50 BID)
Protocol: A multicenter, randomized, double-blind, parallel group study was conducted in patients with hypertension. […] The study consisted of a two-week pretreatment period for completion of screening procedures and discontinuation of any current antihypertensive medication(s). The screening period was followed by a four-week single-blind placebo lead-in treatment period.
The primary efficacy measure was the change from baseline in cuff diastolic blood pressure measured at trough as compared to placebo. Secondary efficacy measures included changes in cuff assessed trough systolic blood pressure and changes in average 24-hour diastolic and systolic blood pressure assessed by ambulatory blood pressure monitoring. Safety was assessed by conducting routine clinical lab tests, physical exams, ECGs, and monitoring for adverse events.

[5] = tested on: Volume Expanded Hypertensive Rats; settings: averaged for 24 hours after three weeks
[6] = tested on: patients with severe heart failure; settings: NYHA Functional Class IV, enalapril plus diuretics compared to placebo plus diuretics; cited from earlier work

## COC(=O)[C@@H]1CC2=CC(=O)CC[C@]2(C)[C@@]23O[C@@H]2C[C@@]2(C)[C@@H](CC[C@@]24CCC(=O)O4)[C@H]13 [Form L]
[1]
  physical stability relative to Form H: greater physical stability

## C[C@H](CS)C(=O)N1CCC[C@H]1C(=O)O [Captopril, captopril, reference compound]
[2]; Captopril 50 mg/kg/d + vehicle, or CAP, Angiotensin II 25 ng/min + Eplerenone 100 mg/kg/d, 2 weeks
  Glomerular damage, Ischemic: 0 ± 0 lesions/100 glomeruli
[2]; as Table A-8B, 2 weeks
  Glomerular damage, Thrombotic: 0±0 lesions/100 glomeruli
  Glomerular damage, Total: 0±0 lesions/100 glomeruli
  Renal arteriopathy, Proliferative: 0±0 lesions/100 glomeruli
  Renal arteriopathy, Thrombotic: 0±0 lesions/100 glomeruli
  Renal arteriopathy, Total: 0±0 lesions/100 glomeruli
[2]; captopril plus vehicle, or captopril plus angiotensin II plus eplerenone
  tubules with ischemic retraction and simplification: absent

## CC(=O)S[C@@H]1CC2=CC(=O)CC[C@]2(C)[C@H]2CC[C@@]3(C)[C@@H](CC[C@@]34CCC(=O)O4)[C@H]12 [Spironolactone, spironolactone, reference compound]
[3]
  morbidity and mortality: reduced morbidity and mortality
[4]
  ABPM DBP, adjusted mean change from baseline to final visit: -8.7 mm Hg
  ABPM SBP, adjusted mean change from baseline to final visit: -15.8 mm Hg
  Cuff DBP, adjusted mean change from baseline to final visit: -9.5 mm Hg
  Cuff SBP, adjusted mean change from baseline to final visit: -16.7 mm Hg
[5]; 100 mg/kg s.c.
  SAP: 171 ± 5 mmHg
[5]; 200 mg/kg s.c.
  SAP: 170 ± 9 mmHg

## CCOC(=O)[C@H](CCc1ccccc1)N[C@@H](C)C(=O)N1CCC[C@H]1C(=O)O [enalapril]
[6]
  reduction of mortality at one year: 31%
